Experimental data published in ChEMBL document CHEMBL1147888, “Convenient one pot synthesis and antimicrobial evaluation of some new Mannich bases carrying 4-methylthiobenzyl moiety” (2007).
Values after ≈ are worked out from the molar mass of the structure shown.

Assays:
Type in all cases: functional
Aspergillus fumigatus [1] = assay: Antifungal activity against Aspergillus fumigatus NICM902 after 3 to 4 days by serial dilution method
Pseudomonas aeruginosa [2] = assay: Antibacterial activity against Pseudomonas aeruginosa ATCC 27853 after 24 hrs by disc diffusion method; settings: ATCC 27853, 24 h
Candida albicans [3] = assay: Antifungal activity against Candida albicans NICM3100 at 10 ug/ml after 3 to 4 days by serial dilution method; settings: read-out: IZ
Pseudomonas aeruginosa [4] = assay: Antibacterial activity against Pseudomonas aeruginosa ATCC 27853 at 10 ug/ml after 24 hrs by disc diffusion method; settings: ATCC 27853, 24 h, read-out: IZ
Klebsiella pneumoniae [5] = assay: Antibacterial activity against Klebsiella pneumoniae after 24 hrs by disc diffusion method
Aspergillus fumigatus [6] = assay: Antifungal activity against Aspergillus fumigatus NICM902 at 10 ug/ml after 3 to 4 days by serial dilution method; settings: read-out: IZ
Talaromyces marneffei [7] = assay: Antifungal activity against Penicillium marneffei at 10 ug/ml after 3 to 4 days by serial dilution method; settings: read-out: IZ
Candida albicans [8] = assay: Antifungal activity against Candida albicans NICM3100 after 3 to 4 days by serial dilution method
Staphylococcus aureus [9] = assay: Antibacterial activity against Staphylococcus aureus ATCC 25923 after 24 hrs by disc diffusion method; settings: ATCC 25923, 24 h
Klebsiella pneumoniae [10] = assay: Antibacterial activity against Klebsiella pneumoniae after 24 hrs at 10 ug/ml by disc diffusion method; settings: read-out: IZ
Aspergillus flavus [11] = assay: Antifungal activity against Aspergillus flavus NICM524 after 3 to 4 days by serial dilution method
Staphylococcus aureus [12] = assay: Antibacterial activity against Staphylococcus aureus ATCC 25923 at 10 ug/ml after 24 hrs by disc diffusion method; settings: ATCC 25923, 24 h, read-out: IZ
Escherichia coli [13] = assay: Antibacterial activity against Escherichia coli ATCC 25922 after 24 hrs by disc diffusion method; settings: ATCC 25922, 24 h
Escherichia coli [14] = assay: Antibacterial activity against Escherichia coli ATCC 25922 after 24 hrs at 10 ug/ml by disc diffusion method; settings: ATCC 25922, 24 h, read-out: IZ
Talaromyces marneffei [15] = assay: Antifungal activity against Penicillium marneffei after 3 to 4 days by serial dilution method
Aspergillus flavus [16] = assay: Antifungal activity against Aspergillus flavus NICM524 at 10 ug/ml after 3 to 4 days by serial dilution method; settings: read-out: IZ

Row | Compound | MIC (Aspergillus fumigatus [1]) [µg/mL] | MIC (Pseudomonas aeruginosa [2]) [µg/mL] | zone of inhibition at 10 µg/mL (Candida albicans [3]) [mm] | zone of inhibition at 10 µg/mL (Pseudomonas aeruginosa [4]) [mm] | MIC (Klebsiella pneumoniae [5]) [µg/mL] | zone of inhibition at 10 µg/mL (Aspergillus fumigatus [6]) [mm] | zone of inhibition at 10 µg/mL (Talaromyces marneffei [7]) [mm] | MIC (Candida albicans [8]) [µg/mL] | MIC (Staphylococcus aureus [9]) [µg/mL] | zone of inhibition at 10 µg/mL (Klebsiella pneumoniae [10]) [mm] | MIC (Aspergillus flavus [11]) [µg/mL] | zone of inhibition at 10 µg/mL (Staphylococcus aureus [12]) [mm] | MIC (Escherichia coli [13]) [µg/mL] | zone of inhibition at 10 µg/mL (Escherichia coli [14]) [mm] | MIC (Talaromyces marneffei [15]) [µg/mL] | zone of inhibition at 10 µg/mL (Aspergillus flavus [16]) [mm]
1 | CSc1ccc(Cc2nn(CN3CCOCC3)c(=S)n2/N=C/c2ccc(Cl)cc2)cc1 | 12.5 (≈ 26.4 µM) | 12.5 (≈ 26.4 µM) | 10 | 12 | 12.5 (≈ 26.4 µM) | 10 | 10 | 12.5 (≈ 26.4 µM) | 25 (≈ 52.7 µM) | 10 | 25 (≈ 52.7 µM) | 10 | 25 (≈ 52.7 µM) | 10 | 12.5 (≈ 26.4 µM) | 10
2 | CSc1ccc(Cc2nn(CN3CCOCC3)c(=S)n2/N=C/c2ccc(F)cc2)cc1 | 12.5 (≈ 27.3 µM) | 12.5 (≈ 27.3 µM) | 10 | 12 | 12.5 (≈ 27.3 µM) | 10 | 12 | 12.5 (≈ 27.3 µM) | 25 (≈ 54.6 µM) | 12 | 25 (≈ 54.6 µM) | 12 | 25 (≈ 54.6 µM) | 12 | 12.5 (≈ 27.3 µM) | 10
3 | CSc1ccc(/C=N/n2c(Cc3ccc(SC)cc3)nn(CN3CCOCC3)c2=S)cc1 | 12.5 (≈ 25.7 µM) | 12.5 (≈ 25.7 µM) | 10 | 12 | 12.5 (≈ 25.7 µM) | 12 | 12 | 12.5 (≈ 25.7 µM) | 25 (≈ 51.5 µM) | 12 | 25 (≈ 51.5 µM) | 10 | 25 (≈ 51.5 µM) | 12 | 12.5 (≈ 25.7 µM) | 10
4 | CSc1ccc(Cc2nn(CN3CCN(C)CC3)c(=S)n2/N=C/c2ccc(F)cc2)cc1 | 12.5 (≈ 26.6 µM) | 12.5 (≈ 26.6 µM) | 10 | 10 | 12.5 (≈ 26.6 µM) | 12 | 10 | 12.5 (≈ 26.6 µM) | 25 (≈ 53.1 µM) | 10 | 25 (≈ 53.1 µM) | 12 | 25 (≈ 53.1 µM) | 12 | 12.5 (≈ 26.6 µM) | 10
5 | COc1ccc(/C=N/n2c(Cc3ccc(SC)cc3)nn(CN3CCOCC3)c2=S)cc1 | 12.5 (≈ 26.6 µM) | 12.5 (≈ 26.6 µM) | 10 | 12 | 12.5 (≈ 26.6 µM) | 12 | 12 | 12.5 (≈ 26.6 µM) | 25 (≈ 53.2 µM) | 10 | 25 (≈ 53.2 µM) | 12 | 25 (≈ 53.2 µM) | 10 | 12.5 (≈ 26.6 µM) | 12
6 | CSc1ccc(Cc2nn(CN3CCN(C)CC3)c(=S)n2/N=C/c2ccc3c(c2)OCO3)cc1 | 12.5 (≈ 25.2 µM) | 12.5 (≈ 25.2 µM) | 10 | 12 | 12.5 (≈ 25.2 µM) | 10 | 10 | 12.5 (≈ 25.2 µM) | 25 (≈ 50.3 µM) | 10 | 25 (≈ 50.3 µM) | 10 | 25 (≈ 50.3 µM) | 12 | 12.5 (≈ 25.2 µM) | 10
7 | Cc1cc(C2CCCCC2)n(O)c(=O)c1.NCCO [CICLOPIROX OLAMINE] | 6 | – | 20 | – | – | 22 | 20 | 6 | – | – | 12.5 | – | – | – | 6 | 18
8 | CSc1ccc(Cc2nn(CN3CCOCC3)c(=S)n2/N=C/c2ccc(Cl)cc2Cl)cc1 | 12.5 (≈ 24.6 µM) | 6 (≈ 11.8 µM) | 10 | 23 | 6 (≈ 11.8 µM) | 12 | 10 | 12.5 (≈ 24.6 µM) | 12.5 (≈ 24.6 µM) | 18 | 25 (≈ 49.2 µM) | 18 | 12.5 (≈ 24.6 µM) | 17 | 12.5 (≈ 24.6 µM) | 10
9 | CSc1ccc(Cc2nn(CN3CCOCC3)c(=S)n2/N=C/c2ccc3c(c2)OCO3)cc1 | 12.5 (≈ 25.8 µM) | 12.5 (≈ 25.8 µM) | 10 | 12 | 12.5 (≈ 25.8 µM) | 12 | 10 | 12.5 (≈ 25.8 µM) | 25 (≈ 51.7 µM) | 10 | 25 (≈ 51.7 µM) | 10 | 25 (≈ 51.7 µM) | 10 | 12.5 (≈ 25.8 µM) | 10
10 | CSc1ccc(Cc2nn(CN3CCN(C)CC3)c(=S)n2/N=C/c2ccc(Cl)cc2Cl)cc1 | 6 (≈ 11.5 µM) | 6 (≈ 11.5 µM) | 20 | 25 | 6 (≈ 11.5 µM) | 22 | 18 | 6 (≈ 11.5 µM) | 12.5 (≈ 24 µM) | 20 | 12.5 (≈ 24 µM) | 19 | 12.5 (≈ 24 µM) | 18 | 6 (≈ 11.5 µM) | 18
11 | COc1ccc(/C=N/n2c(Cc3ccc(SC)cc3)nn(CN3CCN(C)CC3)c2=S)cc1 | 12.5 (≈ 25.9 µM) | 12.5 (≈ 25.9 µM) | 10 | 10 | 12.5 (≈ 25.9 µM) | 12 | 10 | 12.5 (≈ 25.9 µM) | 25 (≈ 51.8 µM) | 10 | 25 (≈ 51.8 µM) | 10 | 25 (≈ 51.8 µM) | 10 | 12.5 (≈ 25.9 µM) | 12
12 | CSc1ccc(Cc2nn(CN3CCOCC3)c(=S)n2/N=C/c2ccc(C)cc2)cc1 | 12.5 (≈ 27.6 µM) | 12.5 (≈ 27.6 µM) | 12 | 12 | 12.5 (≈ 27.6 µM) | 10 | 10 | 12.5 (≈ 27.6 µM) | 25 (≈ 55.1 µM) | 10 | 25 (≈ 55.1 µM) | 10 | 25 (≈ 55.1 µM) | 10 | 12.5 (≈ 27.6 µM) | 12
13 | CSc1ccc(/C=N/n2c(Cc3ccc(SC)cc3)nn(CN3CCN(C)CC3)c2=S)cc1 | 12.5 (≈ 25.1 µM) | 12.5 (≈ 25.1 µM) | 10 | 12 | 12.5 (≈ 25.1 µM) | 12 | 12 | 12.5 (≈ 25.1 µM) | 25 (≈ 50.1 µM) | 10 | 25 (≈ 50.1 µM) | 12 | 25 (≈ 50.1 µM) | 10 | 12.5 (≈ 25.1 µM) | 12
14 | CSc1ccc(Cc2nn(CN3CCN(C)CC3)c(=S)n2/N=C/c2ccc(C)cc2)cc1 | 12.5 (≈ 26.8 µM) | 12.5 (≈ 26.8 µM) | 12 | 12 | 12.5 (≈ 26.8 µM) | 10 | 11 | 12.5 (≈ 26.8 µM) | 25 (≈ 53.6 µM) | 10 | 25 (≈ 53.6 µM) | 10 | 25 (≈ 53.6 µM) | 12 | 12.5 (≈ 26.8 µM) | 12
15 | O=C(O)c1cn(C2CC2)c2cc(N3CCNCC3)c(F)cc2c1=O [CIPROFLOXACIN] | – | 6 (≈ 18.1 µM) | 20 | 25 | 6 (≈ 18.1 µM) | 22 | 20 | – | 12.5 (≈ 37.7 µM) | 20 | – | 19 | 12.5 (≈ 37.7 µM) | 18 | – | 18
16 | CSc1ccc(Cc2nn(CN3CCN(C)CC3)c(=S)n2/N=C/c2ccc(Cl)cc2)cc1 | 6 (≈ 12.3 µM) | 6 (≈ 12.3 µM) | 19 | 24 | 6 (≈ 12.3 µM) | 20 | 20 | 6 (≈ 12.3 µM) | 12.5 (≈ 25.7 µM) | 20 | 12.5 (≈ 25.7 µM) | 18 | 12.5 (≈ 25.7 µM) | 18 | 6 (≈ 12.3 µM) | 18
